Laboratory results published in ChEMBL document CHEMBL3763031, “Design, synthesis and biological evaluation of monobactams as antibacterial agents against gram-negative bacteria” (2016).
In brackets after ≈: the same amount, converted by molar mass.

Legend:
Pseudomonas aeruginosa [1] = assay: Antimicrobial activity against Pseudomonas aeruginosa PAO1 after 18 hrs by microdilution method in presence of 0.4 uM iron; format: functional
Pseudomonas aeruginosa [2] = assay: Antimicrobial activity against Pseudomonas aeruginosa 27853 after 18 hrs by microdilution method in presence of 4 uM iron; format: functional
Pseudomonas aeruginosa [3] = assay: Antimicrobial activity against Pseudomonas aeruginosa 27853 after 18 hrs by microdilution method in presence of 0.4 uM iron; format: functional
Pseudomonas aeruginosa [4] = assay: Antimicrobial activity against Pseudomonas aeruginosa PAO1 after 18 hrs by microdilution method in presence of 40 uM iron; format: functional
Pseudomonas aeruginosa [5] = assay: Antimicrobial activity against Pseudomonas aeruginosa PAO1 after 18 hrs by microdilution method in presence of 4 uM iron; format: functional
Pseudomonas aeruginosa [6] = assay: Antimicrobial activity against Pseudomonas aeruginosa 27853 after 18 hrs by microdilution method in presence of 40 uM iron; format: functional
Klebsiella pneumoniae [7] = assay: Antibacterial activity against NDM-1 positive Klebsiella pneumoniae BAA-2146 after 18 hrs by agar dilution assay; format: functional; details: BAA-2146, 18 h
Klebsiella pneumoniae [8] = assay: Antibacterial activity against ESBL positive Klebsiella pneumoniae 700603 after 18 hrs by agar dilution assay; format: functional; details: Klebsiella pneumoniae, 700603, 18 h
Escherichia coli [9] = assay: Antibacterial activity against Escherichia coli BL21 by microbroth dilution assay; format: functional
Escherichia coli [10] = assay: Antibacterial activity against acrAB and acrEF knock-out Escherichia coli BL21 by microbroth dilution assay; format: functional
Salmonella typhi = assay: Antibacterial activity against beta-lactamase producing Salmonella typhi H901 after 18 hrs by agar dilution assay; format: functional, Salmonella enterica subsp. enterica serovar Typhi; details: Salmonella enterica, H901, 18 h
Escherichia coli [11] = assay: Antibacterial activity against ESBL negative Escherichia coli 09-20 after 18 hrs by agar dilution assay; format: functional; details: 09-20, 18 h
Pseudomonas aeruginosa [12] = assay: Antibacterial activity against BL positive Pseudomonas aeruginosa 27853 after 18 hrs by agar dilution assay; format: functional; details: Pseudomonas aeruginosa, 27853, 18 h
Proteus mirabilis = assay: Antibacterial activity against beta-lactamase producing Proteus mirabilis 09-1 after 18 hrs by agar dilution assay; format: functional; details: 09-1, 18 h
Escherichia coli [13] = assay: Antibacterial activity against ESBL negative Escherichia coli 25922 after 18 hrs by agar dilution assay; format: functional; details: Escherichia coli, 25922, 18 h
Citrobacter freundii = assay: Antibacterial activity against beta-lactamase producing Citrobacter freundii 43864 after 18 hrs by agar dilution assay; format: functional; details: Citrobacter freundii, 43864, 18 h
Escherichia coli [14] = assay: Antibacterial activity against ESBL negative Escherichia coli 1515 after 18 hrs by agar dilution assay; format: functional; details: Escherichia coli, 1515, 18 h
Enterobacter cloacae = assay: Antibacterial activity against beta-lactamase producing Enterobacter cloacae 45301 after 18 hrs by agar dilution assay; format: functional; details: Enterobacter cloacae, 45301, 18 h
Pseudomonas aeruginosa [15] = assay: Antimicrobial activity against Pseudomonas aeruginosa PAO1 after 18 hrs by microdilution method in absence of iron; details: PAO1, 18 h
Klebsiella pneumoniae [16] = assay: Antibacterial activity against ESBL negative Klebsiella pneumoniae 09-8 after 18 hrs by agar dilution assay; format: functional; details: 09-8, 18 h
Escherichia coli [17] = assay: Selectivity ratio of MIC for Escherichia coli BL21 to MIC for acrAB and acrEF knock-out Escherichia coli BL21; format: functional
Pseudomonas aeruginosa [18] = assay: Antibacterial activity against BL positive Pseudomonas aeruginosa 09-14 after 18 hrs by agar dilution assay; format: functional; details: 09-14, 18 h
Pseudomonas aeruginosa [19] = assay: Antibacterial activity against BL positive Pseudomonas aeruginosa PAO1 after 18 hrs by agar dilution assay; format: functional; details: PAO1, 18 h
Providencia rettgeri = assay: Antibacterial activity against Providencia rettgeri 31052 after 18 hrs by agar dilution assay; format: functional; details: Providencia rettgeri, 31052, 18 h
Klebsiella aerogenes = assay: Antibacterial activity against beta-lactamase producing Enterobacter aerogenes 45102 after 18 hrs by agar dilution assay; format: functional; details: Klebsiella aerogenes, 45102, 18 h
Klebsiella pneumoniae [20] = assay: Antibacterial activity against ESBL positive Klebsiella pneumoniae 09-25 after 18 hrs by agar dilution assay; format: functional; details: 09-25, 18 h
Pseudomonas aeruginosa [21] = assay: microbe, parasite or virus in culture; details: Pseudomonas aeruginosa, 27853, 18 h
Description: Antimicrobial activity against Pseudomonas aeruginosa 27853 after 18 hrs by microdilution method in absence of iron

Morganella morganii = assay: Antibacterial activity against beta-lactamase producing Morganella morganii 25830 after 18 hrs by agar dilution assay; format: functional; details: Morganella morganii, 25830, 18 h
Escherichia coli [22] = assay: Antibacterial activity against ESBL positive Escherichia coli 09-1 after 18 hrs by agar dilution assay; format: functional; details: 09-1, 18 h
Serratia marcescens = assay: Antibacterial activity against beta-lactamase producing Serratia marcescens 41002 after 18 hrs by agar dilution assay; format: functional; details: Serratia marcescens, 41002, 18 h
Proteus vulgaris = assay: Antibacterial activity against beta-lactamase producing Proteus vulgaris 29905 after 18 hrs by agar dilution assay; format: functional; details: Proteus vulgaris, 29905, 18 h
Klebsiella pneumoniae [23] = assay: Antibacterial activity against ESBL negative Klebsiella pneumoniae 7 after 18 hrs by agar dilution assay; format: functional; details: Klebsiella pneumoniae, 7, 18 h
[24] = Pseudomonas aeruginosa, 27853, 18 h

Row | Compound | MIC (Klebsiella pneumoniae [7]) | MIC (Pseudomonas aeruginosa [1]; PAO1, 18 h) | MIC (Pseudomonas aeruginosa [2]; [24]) | MIC (Klebsiella pneumoniae [8]) | MIC (Escherichia coli [9]) | MIC (Pseudomonas aeruginosa [3]; [24]) | MIC (Escherichia coli [10]) | MIC (Salmonella typhi) | MIC (Escherichia coli [11]) | MIC (Pseudomonas aeruginosa [12]) | MIC (Proteus mirabilis) | MIC (Escherichia coli [13]) | MIC (Citrobacter freundii) | MIC (Escherichia coli [14]) | MIC (Pseudomonas aeruginosa [4]; PAO1, 18 h) | MIC (Enterobacter cloacae) | MIC (Pseudomonas aeruginosa [15]) | MIC (Klebsiella pneumoniae [16]) | Selectivity ratio (Escherichia coli [17]) | MIC (Pseudomonas aeruginosa [18]) | further results
1 | GENTAMICIN |  |  |  |  |  |  |  |  |  |  |  |  |  |  |  |  |  |  |  |  | MIC (Pseudomonas aeruginosa [1]): 128 µg/mL; MIC (Pseudomonas aeruginosa [2]): 1 µg/mL; MIC (Pseudomonas aeruginosa [3]): 1 µg/mL; MIC (Pseudomonas aeruginosa [4]): 128 µg/mL; MIC (Pseudomonas aeruginosa [5]): 1 µg/mL; MIC (Pseudomonas aeruginosa [6]): 128 µg/mL
2 | CC1(C)[C@H](NC(=O)/C(=N\OCc2ccccn2)c2csc(N)n2)C(=O)N1S(=O)(=O)O | 16 µg/mL (≈ 35.2 µM) | 64 µg/mL | 128 µg/mL | > 128 µg/mL | 2 µg/mL (≈ 4.4 µM) | 128 µg/mL | ≤ 0.06 µg/mL | 32 µg/mL (≈ 70.4 µM) | 4 µg/mL (≈ 8.8 µM) | 64 µg/mL (≈ 141 µM) | 2 µg/mL (≈ 4.4 µM) | 2 µg/mL (≈ 4.4 µM) | 2 µg/mL (≈ 4.4 µM) | 2 µg/mL (≈ 4.4 µM) | 64 µg/mL | 1 µg/mL (≈ 2.2 µM) | 64 µg/mL (≈ 141 µM) | 4 µg/mL (≈ 8.8 µM) | >16 | 64 µg/mL (≈ 141 µM) | MIC (Pseudomonas aeruginosa [19]): 32 µg/mL (≈ 70.4 µM); MIC (Providencia rettgeri): 0.06 µg/mL (≈ 0.132 µM); MIC (Klebsiella aerogenes): 8 µg/mL (≈ 17.6 µM); MIC (Klebsiella pneumoniae [20]): 32 µg/mL (≈ 70.4 µM); MIC (Pseudomonas aeruginosa [21]): 128 µg/mL (≈ 282 µM); MIC (Morganella morganii): 0.5 µg/mL (≈ 1.1 µM); MIC (Escherichia coli [22]): 4 µg/mL (≈ 8.8 µM); MIC (Pseudomonas aeruginosa [5]; PAO1, 18 h): 128 µg/mL; MIC (Serratia marcescens): 8 µg/mL (≈ 17.6 µM); MIC (Proteus vulgaris): 0.125 µg/mL (≈ 0.275 µM); MIC (Pseudomonas aeruginosa [6]; [24]): 128 µg/mL; MIC (Klebsiella pneumoniae [23]): 4 µg/mL (≈ 8.8 µM)
3 | CCN(CC)CC.C[C@H]1[C@H](NC(=O)/C(=N\OCc2ccc(C(=O)N/N=C/c3ccccc3O)cc2)c2csc(N)n2)C(=O)N1S(=O)(=O)O (relative stereo) | > 64 µg/mL | 128 µg/mL | 128 µg/mL | > 64 µg/mL | 64 µg/mL | 128 µg/mL | 2 µg/mL | 0.5 µg/mL | 64 µg/mL | 8 µg/mL | 8 µg/mL | 4 µg/mL | 4 µg/mL | 2 µg/mL | > 128 µg/mL | 2 µg/mL | > 128 µg/mL | 16 µg/mL | >16 | 4 µg/mL | MIC (Pseudomonas aeruginosa [19]): 4 µg/mL; MIC (Providencia rettgeri): ≤ 0.03 µg/mL; MIC (Klebsiella aerogenes): 2 µg/mL; MIC (Klebsiella pneumoniae [20]): > 64 µg/mL; MIC (Pseudomonas aeruginosa [21]): 128 µg/mL; MIC (Morganella morganii): 2 µg/mL; MIC (Escherichia coli [22]): 64 µg/mL; MIC (Pseudomonas aeruginosa [5]; PAO1, 18 h): 128 µg/mL; MIC (Serratia marcescens): 8 µg/mL; MIC (Proteus vulgaris): 0.25 µg/mL; MIC (Pseudomonas aeruginosa [6]; [24]): > 128 µg/mL; MIC (Klebsiella pneumoniae [23]): 2 µg/mL
4 | CC1(C)[C@H](NC(=O)/C(=N\OCc2cccnc2)c2csc(N)n2)C(=O)N1S(=O)(=O)O | 32 µg/mL (≈ 70.4 µM) | > 128 µg/mL | > 128 µg/mL | 64 µg/mL (≈ 141 µM) | 32 µg/mL (≈ 70.4 µM) | > 128 µg/mL | 0.5 µg/mL (≈ 1.1 µM) | 32 µg/mL (≈ 70.4 µM) | 4 µg/mL (≈ 8.8 µM) | > 128 µg/mL | 32 µg/mL (≈ 70.4 µM) | 8 µg/mL (≈ 17.6 µM) | 4 µg/mL (≈ 8.8 µM) | 16 µg/mL (≈ 35.2 µM) | > 128 µg/mL | 4 µg/mL (≈ 8.8 µM) | > 128 µg/mL | 8 µg/mL (≈ 17.6 µM) | >16 | > 128 µg/mL | MIC (Pseudomonas aeruginosa [19]): 128 µg/mL (≈ 282 µM); MIC (Providencia rettgeri): 0.03 µg/mL (≈ 0.066 µM); MIC (Klebsiella aerogenes): 8 µg/mL (≈ 17.6 µM); MIC (Klebsiella pneumoniae [20]): 8 µg/mL (≈ 17.6 µM); MIC (Pseudomonas aeruginosa [21]): > 128 µg/mL; MIC (Morganella morganii): 0.5 µg/mL (≈ 1.1 µM); MIC (Escherichia coli [22]): 4 µg/mL (≈ 8.8 µM); MIC (Pseudomonas aeruginosa [5]; PAO1, 18 h): > 128 µg/mL; MIC (Serratia marcescens): 8 µg/mL (≈ 17.6 µM); MIC (Proteus vulgaris): 0.25 µg/mL (≈ 0.55 µM); MIC (Pseudomonas aeruginosa [6]; [24]): > 128 µg/mL; MIC (Klebsiella pneumoniae [23]): 4 µg/mL (≈ 8.8 µM)
